Consider seven compounds from US20030118636A1, “Delivery of small hydrophilic molecules packaged into lipid vesicles” (priority 2001, published 2003).

Data set [1] addresses T1, MscL mutant G22C (Escherichia coli, UniProt P0A742, G22C).
T1 construct: expressed in transfected cells
The data set is classed as biochemical, E. coli. The following applies: for kinetics of calcein release compared to MTSET: 2.5 mM MTSEA, 10 mM MTSES. As for the experimental part:
Samples were prepared, and calcein efflux was monitored as described in examples 1 and 2A.
The membrane reconstitution mixture was incubated for 30 min. at room temperature and 40 mg of detergent-absorbing Bio-Beads SM-2 (Bio-Rad, Inc.) was added and incubated at 4° C. for 30 min. Next, 400 mg Bio-Beads were added and incubated overnight at 4° C. All steps were performed under mild agitation. Samples were prepared for calcein efflux assay as described in example 1.

Data set [2] addresses T1, MscL mutant G22C. The following applies: no tension applied (Yoshimura et al.); cited from earlier work.
Data set [3] has as its target T2, MscL (Escherichia coli, UniProt P0A742, G22C).
T2 construct: made in house; host or cells: E. coli PB104
The data set is classed as biochemical, E. coli.

Data set [4] has as its target T1, MscL mutant G22C. The data set is classed as biochemical, E. coli. Here is the method:
FIGS. 10A-10D. […] Pressure in the pipette, relative to atmospheric, is shown in the lower traces of FIGS. 10A and 10B, and recordings of the current through a cell attached patch of a spheroplast are shown in the upper traces of FIGS. 10A and 10B. […] Buffer: 200 mM KCl, 90 mM MgCl2, 110 mM CaCl2, 5 mM HEPES, pH 6.0. FIGS. 10C and 10D show the histograms of the conductivity preferences of FIGS. 10A and 10B, respectively.
FIGS. 14A-14D. […] 5 μl of G22C spheroplasts were incubated with IMI (2 mM final concentration) or with patch buffer overnight at 4° C. The next day, currents through cell-attached patches held at +20 mV were recorded for unlabeled (FIG. 14A) and labeled (FIG. 14B) proteins and histograms showing the conductance states of each recording are illustrated in FIG. 14C and FIG. 14D, respectively.
Expression, purification, membrane reconstitution, and patch clamp analysis were performed as described in Example 1 or as described below.
Giant spheroplasts were prepared as explained before (Blount, P. et al., Methods Enzymol. Vol. 294:458-482, 1999).

Data set [5] in a line: Urinary excretion of IOT after subcutaneous injection in conscious rats. The data set is classed as in vivo, rat. The conditions noted are these: free IOT. As for the experimental part:
DOPC/DOPS (90:10, mol/mol) and DOPC/DOPE liposomes (70:30, mol/mol) were tested.
Male Wistar rats remained conscious throughout the study. To increase the resolution time, the diuretic furosemide (10 mg/kg dose s.c.) was given in the morning, 7 hours before administration of the sample. Urine was collected automatically with a 1 hour resolution. The concentration of IOT in the urine was measured by HPLC.

For data set [6] the following is noted: rat; cited from earlier work.
Data set [7] deals with T1, MscL mutant G22C. Nature of the data set: FITC-insulin efflux from liposomes with MscL mutant G22C (filter assay). The data set is classed as biochemical, E. coli. The conditions noted are these: 1 mM MTSET; DOPC:DOPS 9:1 liposomes with MscL mutant G22C. As for the experimental part: Insulin and fluorescein isothiocyanate (FITC) were obtained from Sigma (St. Louis, Mo., USA). Insulin (23 mg) was reacted with a four-fold molar ratio of FITC in 0.1 N borate buffer, pH 9.0, for 60 min. The pH was lowered to 7.5 with 0.1 N boric acid and the solution was extensively dialyzed, using a dialysis membrane with a molecular weight cut-off of 2,000 Da, for 96 hours against water at 4° C. with frequent water changes. Absorption spectra of the dialyzed sample were used to quantify the protein concentration and the stoichiometry of labeling. Concentrations of FITC and insulin were both 0.1 mM. The labeled insulin was encapsulated by three freeze-thaw cycles, followed by extrusion through a 400 nm polycarbonate membrane. The proteoliposomes containing labeled insulin were separated from free labeled insulin by using sephadex G-50 column chromatography equilibrated with 145 mM NaCl, 300 mM Sucrose, 25 mM Tris.HCl and 1 mM EDTA, pH 8.0.
Samples were taken at different time points and Triton was added as a control for maximum fluorescence (100%). Samples were filtered over a 450 nm Cellulose Nitrate filter (Schleicher & Schuell BA85). The filtrate of 2 ml was retained and the fluorescence of 200 I11 of each filtrate was monitored in an fl600 plate reader (Bio-Tek). All experiments were performed in triplicate.

The conditions of data set [8]: free compound.
Procedure: The effect of drug formulation on the rate of drug release in vivo was tested in the rat by external counting of radioactivity. The model was based on liposomal formulations that remain at the subcutaneous site of administration with an encapsulated model drug which, when released, was rapidly removed from the subcutaneous site of injection and excreted into the urinary bladder.
Male Wistar rats were anaesthetized using iso-flurane O2/NO throughout the study. Liposome encapsulated MAG3 in a 0.5 ml volume was injected subcutaneously (in the neck) and accumulation of radioactivity in the urinary bladder was constantly monitored by external counting using a gamma-camera (window: 140 keV, 250 keV width, 1 min. time resolution). At the end of the study (after 40 min.), a 10 times higher dose of free MAG3 was administered subcutaneously or intravenously to measure the urinary excretion rates of those formulations.
For data set [9] the following is noted: humans; cited from earlier work.
The mark [10] stands for this setting: DOPC:DOPS 90:10 liposomes with MscL mutant G22C.
Setting [11] is: 1 mM MTSET, DOPC:DOPS 90:10 liposomes with MscL mutant G22C.

Read-outs that look alike come from different tables or passages of the source.

T1 sequence (P0A742 2-136 G22C): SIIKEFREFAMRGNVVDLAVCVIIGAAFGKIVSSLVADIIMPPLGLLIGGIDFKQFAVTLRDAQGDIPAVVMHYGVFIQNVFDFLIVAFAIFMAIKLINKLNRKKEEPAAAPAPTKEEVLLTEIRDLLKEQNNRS
T2 sequence (P0A742 2-136 G22C): as above

Consider “2-aminoethyl methanethiosulfonate [MTSEA]”, for which, in [1] (setting [10]), the “kinetics of calcein release compared to MTSET” value is “significantly slower”. Moreover, the “effect of attachment to the cysteine on gating under patch clamp” value (“effect of attachment to the cysteine” for short) in [2] is listed as “gate spontaneously”.
For `Br.BrCc1ccncc1` [BP, 4-(bromomethyl)pyridine hydrobromide], the “channel behavior of labeled MscL mutant G22C” value in data set [3] (pH 5.2, +20 mV) was “prefers not to open completely but only to subconducting states and the dwell times get shorter”; in [3] (pH 7.2, +20 mV), “behaves as an unlabeled channel”.
Take `COC(=O)C(I)Cc1cnc[nH]1` (stereo not shown) [IMI, methyl 2-iodo-3-(5-imidazolyl)propanoate]: the “channel state in calcein efflux assays” value in data set [1] (IMI labeled MscL mutant G22C, pH 7.0 and 8.0 (data not shown)) is “tendency to stay open at pH 7.0 and 8.0”. In addition, the “ratio of tension sensitivity of MscL over MscS” value in [4] (spheroplasts, pH 6) turned out to be 1.48.
For `CNC(=O)c1c(I)c(NC(C)=O)c(I)c(C(=O)O)c1I` [IOT, Iodo-thalamate], the “first phase urinary excretion” value in [5] was “completed in the first couple of hours”. Besides, the “excretion via glomerular filtration” value in data set [6] is 1 ml.min^−1.100 g rat.
Consider `C[N+](C)(C)CCSS(C)(=O)=O` [MTSET, [2-(Trimethylammonium)ethyl]methanethiosulfonate], for which, in data set [1] (setting [11]), the encapsulated calcein released is 80% and the “time for half of the MscL mediated efflux” value is at most 7 s. The “calcein release upon addition” value in data set [1] (DOPC:Cholesterol 80:20 liposomes with vs without MscL mutant G22C) is “effective release of calcein”. The “effect of attachment on pressure sensitivity and gating” value in [4] (attached to MscL mutant G22C in spheroplasts) is on record as “spontaneous gating of the channel”. Besides, the “FITC-insulin efflux upon activation” value in data set [7] is “release of FITC-insulin”. The “effect of attachment to the cysteine” value in data set [2] is “gate spontaneously”.
Consider mertiatide [MAG3], for which the figures for the “time to 50% urinary excretion” value in [8] (intravenous) and in data set [8] (subcutaneous) were 3 min and over 12 min, respectively. Also, the active tubular secretion in data set [9] was 600 mL/min.
As for “sodium (2-sulfonatoethyl) methane thiosulfonate [MTSES]”, the “kinetics of calcein release compared to MTSET” value in [1] (setting [10]) was “significantly slower”. In [2], the “effect of attachment to the cysteine” value is on record as “gate spontaneously”.
